Results published in US9260425B2 (Genetech, Inc., priority 2011, dated 2016).

Each compound was assayed against Pim-1 (Homo sapiens (Human), UniProt P11309) (assay: Pim kinase binding activity assay (Example 901), PIM-1 enzyme, Caliper microfluidic peptide phosphorylation). Conditions: 20 pM PIM-1, 10 μM ATP, 1 μM FAM-peptide, 90 minutes at room temperature.
Type: biochemical
Summary of the method: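 PIM-1 at 20 pM phosphorylated 1 μM FAM-labelled Pim peptide with 10 μM ATP in HEPES pH 7.2, MgCl2, Tween 20 and DTT for 90 min at room temperature. EDTA stopped the reaction, and product and substrate were resolved by microfluidic electrophoresis (ex 488/em 530 nm). Ki was derived from substrate conversion.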

Sequence of Pim-1 (P11309 whole entry): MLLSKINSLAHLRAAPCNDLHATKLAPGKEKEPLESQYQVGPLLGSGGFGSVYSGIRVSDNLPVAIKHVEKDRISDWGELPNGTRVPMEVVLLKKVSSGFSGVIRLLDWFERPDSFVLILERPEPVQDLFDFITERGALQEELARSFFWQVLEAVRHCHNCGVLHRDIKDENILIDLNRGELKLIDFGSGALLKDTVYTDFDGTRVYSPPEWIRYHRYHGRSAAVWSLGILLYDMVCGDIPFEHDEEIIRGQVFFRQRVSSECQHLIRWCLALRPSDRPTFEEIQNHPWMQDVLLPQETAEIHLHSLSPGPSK

Row | SMILES | Ki [nM]
1 | N[C@H]1CCCN(c2nc(-c3n[nH]c4cnc(-c5cccnc5)cc34)ccc2Cl)C1 [Example 265, (S)-1-(3-chloro-6-(5-(pyridin-3-yl)-1H-pyrazolo[3,4-c]pyridin-3-yl)pyridin-2-yl)piperidin-3-amine] | 0.019
2 | OCCN1CCN(c2cccc(-c3n[nH]c4cnc(-c5cccnc5)cc34)n2)CC1 [Example 282, 2-(4-(6-(5-(pyridin-3-yl)-1H-pyrazolo[3,4-c]pyridin-3-yl)pyridin-2-yl)piperazin-1-yl)ethanol] | 0.164
3 | CN1CCN(c2nc(-c3n[nH]c4cnc(-c5cnn(C)c5)cc34)ccc2Br)CC1 [Example 402, 3-(5-bromo-6-(4-methylpiperazin-1-yl)pyridin-2-yl)-5-(1-methyl-1H-pyrazol-4-yl)-1H-pyrazolo[3,4-c]pyridine] | 0.07
4 | CCCCc1ccc(-c2n[nH]c3cnc(-c4cccnc4)cc23)nc1N1CCC[C@H](N)C1 [Example 362, (S)-1-(3-butyl-6-(5-(pyridin-3-yl)-1H-pyrazolo[3,4-c]pyridin-3-yl)pyridin-2-yl)piperidin-3-amine] | 0.079
5 | OC1CN(c2cccc(-c3n[nH]c4cnc(-c5cccnc5)cc34)n2)CCC1F (stereo not shown) [Example 435, 4-fluoro-1-(6-(5-(pyridin-3-yl)-1H-pyrazolo[3,4-c]pyridin-3-yl)pyridin-2-yl)piperidin-3-ol] | 0.089
6 | NC1CCN(c2ccncc2-c2cc3c(-c4ccccc4F)n[nH]c3cn2)CC1 [Example 128, 1-(3-(3-(2-fluorophenyl)-1H-pyrazolo[3,4-c]pyridin-5-yl)pyridin-4-yl)piperidin-4-amine] | 1500
7 | N#Cc1cc2c(-c3cccc(N4CCC[C@@H](N)C4)n3)n[nH]c2cn1 [Example 398, (R)-3-(6-(3-aminopiperidin-1-yl)pyridin-2-yl)-1H-pyrazolo[3,4-c]pyridine-5-carbonitrile] | 39.1
8 | CN1CCN(c2cc3c(-c4ccccn4)n[nH]c3cn2)CC1=O [Example 351, 1-methyl-4-(3-(pyridin-2-yl)-1H-pyrazolo[3,4-c]pyridin-5-yl)piperazin-2-one] | 4800
9 | Cn1cc(-c2cc3c(-c4ccnc(N5CCCCC5)n4)n[nH]c3cn2)cn1 [Example 360, 5-(1-methyl-1H-pyrazol-4-yl)-3-(2-(piperidin-1-y1)pyrimidin-4-yl)-1H-pyrazolo[3,4-c]pyridine] | 0.366
10 | C=C(C)c1ccc(-c2n[nH]c3cnc(-c4cnn(C)c4)cc23)nc1N1CCC[C@H](N)C1 [Example 414, (S)-1-(6-(5-(1-methyl-1H-pyrazol-4-yl)-1H-pyrazolo[3,4-c]pyridin-3-yl)-3-(prop-1-en-2-yl)pyridin-2-yl)piperidin-3-amine] | 0.028
11 | N[C@H]1CCCN(c2cccc(-c3n[nH]c4cnc(N5CCOC5=O)cc34)n2)C1 [Example 374, (S)-3-(3-(6-(3-aminopiperidin-1-yl)pyridin-2-yl)-1H-pyrazolo[3,4-c]pyridin-5-yl)oxazolidin-2-one] | 85
12 | NCCNc1cccc(-c2n[nH]c3cnc(-c4cccnc4)cc23)n1 [Example 143, N1-(6-(5-(pyridin-3-yl)-1H-pyrazolo[3,4-c]pyridin-3-yl)pyridin-2-yl)ethane-1,2-diamine] | 0.312
13 | Cn1cc(-c2cc3c(-c4cccc(N5CC[C@@H](N)C5)n4)n[nH]c3cn2)cn1 [Example 189, (R)-1-(6-(5-(1-methyl-1H-pyrazol-4-yl)-1H-pyrazolo[3,4-c]pyridin-3-yl)pyridin-2-yl)pyrrolidin-3-amine] | 0.136
14 | NC1CCN(C(=O)c2cccc(-c3n[nH]c4cnc(-c5cccnc5)cc34)n2)CC1 [Example 336, (4-aminopiperidin-1-yl)(6-(5-(pyridin-3-yl)-1H-pyrazolo[3,4-c]pyridin-3-yl)pyridin-2-yl)methanone] | 12.7
15 | CC(C)n1cc(-c2cc3c(-c4cccc(N5CCNCC5)n4)n[nH]c3cn2)cn1 [Example 389, 5-(1-isopropyl-1H-pyrazol-4-yl)-3-(6-(piperazin-1-yl)pyridin-2-yl)-1H-pyrazolo[3,4-c]pyridine] | 0.213
16 | c1cncc(-c2cc3c(-c4cccc(N5CCCNCC5)n4)n[nH]c3cn2)c1 [Example 187, 3-(6-(1,4-diazepan-1-yl)pyridin-2-yl)-5-(pyridin-3-yl)-1H-pyrazolo[3,4-c]pyridine] | 0.015
17 | NC1CCCCN(c2cccc(-c3n[nH]c4cnc(-c5cnn(CCF)c5)cc34)n2)C1 (stereo not shown) [Example 514, 1-(6-(5-(1-(2-fluoroethyl)-1H-pyrazol-4-yl)-1H-pyrazolo[3,4-c]pyridin-3-yl)pyridin-2-yl)azepan-3-amine] | 0.077
18 | O=C1CCCN1c1n[nH]c2cnc(-c3cccnc3)cc12 [Example 258, 1-(5-(pyridin-3-yl)-1H-pyrazolo[3,4-c]pyridin-3-yl)pyrrolidin-2-one] | 80.9
19 | CCn1cc(-c2cc3c(-c4ccc(C)c(N5CCC[C@@H](N)C5)n4)n[nH]c3cn2)cn1 [Example 443, (R)-1-(6-(5-(1-ethyl-1H-pyrazol-4-yl)-1H-pyrazolo[3,4-c]pyridin-3-yl)-3-methylpyridin-2-yl)piperidin-3-amine] | 0.1

Row | SMILES | Ki [nM]
20 | Cn1cc(-c2cc3c(-c4ccc(C5CC5)c(N5CCC[C@H](N)C5)n4)n[nH]c3cn2)cn1 [Example 486, (S)-1-(3-cyclopropyl-6-(5-(1-methyl-1H-pyrazol-4-yl)-1H-pyrazolo[3,4-c]pyridin-3-yl)pyridin-2-yl)piperidin-3-amine] | 0.009
21 | CN1C(=O)CN(c2cc3c(-c4ccccc4)n[nH]c3cn2)C1=O [Example 355, 3-methyl-1-(3-phenyl-1H-pyrazolo[3,4-c]pyridin-5-yl)imidazolidine-2,4-dione] | 809
22 | CCn1cc(-c2cc3c(-c4cccc(N5CCC[C@@H](N)C5)n4)n[nH]c3cn2)cn1 [Example 285, (R)-1-(6-(5-(1-ethyl-1H-pyrazol-4-yl)-1H-pyrazolo[3,4-c]pyridin-3-yl)pyridin-2-yl)piperidin-3-amine] | 0.0473
23 | CCn1cc(-c2cc3c(-c4cccc(N5CCNC[C@H](O)C5)n4)n[nH]c3cn2)cn1 [Example 410, (S)-1-(6-(5-(1-ethyl-1H-pyrazol-4-yl)-1H-pyrazolo[3,4-c]pyridin-3-yl)pyridin-2-yl)-1,4-diazepan-6-ol] | 0.039
24 | N[C@@H]1CCCN(c2cccc(-c3n[nH]c4cnc(-n5ccnc5)cc34)n2)C1 [Example 369, (R)-1-(6-(5-(1H-imidazol-1-yl)-1H-pyrazolo[3,4-c]pyridin-3-yl)pyridin-2-yl)piperidin-3-amine] | 1.13
25 | CCn1cc(-c2cc3c(-c4ccc(Br)c(N5C[C@H](N)C[C@@H](F)C5)n4)n[nH]c3cn2)cn1 [Example 455, (3R,5R)-1-(3-bromo-6-(5-(1-ethyl-1H-pyrazoI-4-yl)-1H-pyrazolo[3,4-c]pyridin-3-yl)pyridin-2-yl)-5-fluoropiperidin-3-amine] | 0.028
26 | CCn1cc(-c2cc3c(-c4cccc(N5CCN(C)CC5)n4)n[nH]c3cn2)cn1 [Example 372, 5-(1-ethyl-1H-pyrazol-4-yl)-3-(6-(4-methylpiperazin-1-yl)pyridin-2-yl)-1H-pyrazolo[3,4-c]pyridine] | 0.268
27 | Cc1n[nH]c2cnc(-c3cnccn3)cc12 [Example 118, 3-methyl-5-(pyrazin-2-yl)-1H-pyrazolo[3,4-c]pyridine] | 620
28 | Cn1cc(-c2cc3c(CC#N)n[nH]c3cn2)cn1 [Example 135, 2-(5-(1-methyl-1H-pyrazol-4-yl)1H-pyrazolo[3,4-c]pyridin-3-yl)acetonitrile] | 387
29 | Cn1cc(-c2cc3c(-c4ccc(Br)c(N5C[C@@H](N)C[C@@H](F)C5)n4)n[nH]c3cn2)cn1 [Example 456, (3S,5R)-1-(3-bromo-6-(5-(1-methyl-1H-pyrazol-4-yl)-1H-pyrazolo[3,4-c]pyridin-3-yl)pyridin-2-yl)-5-fluoropiperidin-3-amine] | 0.03
30 | C[C@@]1(N)CCCN(c2cccc(-c3n[nH]c4cnc(-c5cccnc5)cc34)n2)C1 [Example 347, (R)-3-methyl-1-(6-(5-(pyridin-3-yl)-1H-pyrazolo[3,4-c]pyridin-3-yl)pyridin-2-yl)piperidin-3-amine] | 0.11
31 | Cc1ccc(-c2n[nH]c3cnc(-c4cnn(C)c4)cc23)nc1N1CCC[C@@H](O)C1 [Example 418, (R)-1-(3-methyl-6-(5-(1-methyl-1H-pyrazol-4-yl)-1H-pyrazolo[3,4-c]pyridin-3-yl)pyridin-2-yl)piperidin-3-ol] | 0.11
32 | NC(=O)C1(N)CCN(c2cccc(-c3n[nH]c4cnc(-c5cccnc5)cc34)n2)CC1 [Example 229, 4-amino-1-(6-(5-(pyridin-3-yl)-1H-pyrazolo[3,4-c]pyridin-3-yl)pyridin-2-yl)piperidine-4-carboxamide] | 0.22
33 | COc1cncc(-c2cc3c(-c4cccc(N5CCNCC5)n4)n[nH]c3cn2)c1 [Example 436, 5-(5-methoxypyridin-3-yl)-3-(6-(piperazin-1-yl)pyridin-2-yl)-1H-pyrazolo[3,4-c]pyridine] | 0.021
34 | Cc1ccc(-c2n[nH]c3cnc(-c4cccnc4)cc23)nc1N1CCC[C@H](N)C1 [Example 315, (S)-1-(3-methyl-6-(5-(pyridin-3-yl)-1H-pyrazolo[3,4-c]pyridin-3-yl)pyridin-2-yl)piperidin-3-amine] | 0.00806
35 | NC(=O)Nc1cc2c(-c3cccc(N4CCC[C@H](N)C4)n3)n[nH]c2cn1 [Example 298, (S)-1-(3-(6-(3-aminopiperidin-1-yl)pyridin-2-yl)-1H-pyrazolo[3,4-c]pyridin-5-yl)urea] | 14.1
36 | FC(F)(F)Cn1cc(-c2cc3c(-c4cccc(N5CCNCC5)n4)n[nH]c3cn2)cn1 [Example 488, 3-(6-(piperazin-1-yl)pyridin-2-yl)-5-(1-(2,2,2-trifluoroethyl)-1H-pyrazol-4-yl)-1H-pyrazolo[3,4-c]pyridine] | 0.022
37 | Cc1ccc(-c2n[nH]c3cnc(-c4cccnc4)cc23)nc1N1CCC[C@@H](O)C1 [Example 309, (R)-1-(3-methyl-6-(5-(pyridin-3-yl)-1H-pyrazolo[3,4-c]pyridin-3-yl)pyridin-2-yl)piperidin-3-ol] | 0.112
